Experimental data: patent publication US20100173943A1, “INSECTICIDAL COMPOSITIONS WITH IMPROVED ACTION” (BAYER CROPSCIENCE AG, priority 2007, published 2010)

Columns and labels:
[1] = system: green peach aphid (Myzus persicae); assay: Myzus persicae test (MYZUPE); format: in vivo; conditions: pepper plants sprayed, 6 days; for pest or weed control at 4 ppm: 4 ppm a.i. alone; for pest or weed control at 0.8 ppm: 0.8 ppm a.i. alone
Experimental: Myzus persicae Test (MYZUPE)
(§1) Solvent: 7 parts by weight of dimethylformamide
(§2) Emulsifier: 2 parts by weight of alkylaryl polyglycol ether
(§3) To prepare an appropriate active ingredient formulation, 1 part by weight of active ingredient is mixed with the given amounts of solvent and emulsifier, and the concentrate is diluted with emulsifier-containing water to the desired concentration. In the case that addition of ammonium salts, penetrants, or ammonium salts and penetrants is required, they are pippetted in each case into the finished preparation solution after dilution in a concentration of 1000 ppm each.
Pepper plants (Capsicum annuum) highly infested by the green peach aphid (Myzus persicaei) are treated by spraying with the active ingredient formulation in the desired concentration.
After the desired time, the kill rate in % is determined. 100% means that all animals have been killed; 0% means that no animals have been killed.

[2] = system: cotton aphid (Aphis gossypii); assay: Aphis gossypii test (APHIGO spray treatment); format: in vivo; conditions: cotton leaves sprayed, 6 days; for pest or weed control at 100 ppm / pest or weed control at 0.8 ppm / pest or weed control at 4 ppm: Aphis gossypii, 144 h, read-out: Kill in % after 6 days a.i.; for pest or weed control at 100 ppm: 100 ppm a.i. alone; for pest or weed control at 0.8 ppm: 0.8 ppm a.i. alone; for pest or weed control at 4 ppm: 4 ppm a.i. alone
Experimental: Aphis gossypii Test (APHIGO Spray Treatment)
as §1, §2
as §3, with “a ready-to-use” for “an appropriate”, “specified” for “given”, “emulsifier” for “emulsifier,”, “pipetted” for “pippetted”
Cotton leaves (Gossypium hirsutum) highly infested by the cotton aphid (Aphis gossypii) are sprayed with an active ingredient formulation with the desired concentration.
After the desired period, the kill rate in % is determined. 100% means that all aphids have been killed; 0% means that no aphids have been killed.

[3] = 100 ppm a.i. + AMS and RME 1000 ppm each
[4] = 100 ppm a.i. + ammonium sulphate 1000 ppm
[5] = 100 ppm a.i. + rapeseed oil methyl ester 1000 ppm
[6] = 4 ppm a.i. + AMS and RME 1000 ppm each
[7] = 4 ppm a.i. + ammonium sulphate 1000 ppm
[8] = 4 ppm a.i. + rapeseed oil methyl ester 1000 ppm
[9] = Myzus persicae, 144 h, read-out: Kill in % after 6 days a.i.
[10] = 0.8 ppm a.i. + AMS and RME 1000 ppm each
[11] = 0.8 ppm a.i. + ammonium sulphate 1000 ppm
[12] = 0.8 ppm a.i. + rapeseed oil methyl ester 1000 ppm

Row | Structure (SMILES) | Kill in % after 6 days +AMS + RME [1, 6] [%] | Kill in % after 6 days +AMS [1, 7] [%] | Kill in % after 6 days +RME [1, 8] [%] | pest or weed control at 4 ppm [1, 9] [%] | Kill in % after 6 days +AMS + RME [1, 10] [%] | Kill in % after 6 days +AMS [1, 11] [%] | Kill in % after 6 days +RME [1, 12] [%] | pest or weed control at 0.8 ppm [1, 9] [%] | Kill in % after 6 days +AMS + RME [2, 10] [%] | Kill in % after 6 days +AMS [2, 11] [%] | Kill in % after 6 days +RME [2, 12] [%] | Kill in % after 6 days +AMS + RME [2, 6] [%] | Kill in % after 6 days +AMS [2, 7] [%] | Kill in % after 6 days +RME [2, 8] [%] | pest or weed control at 0.8 ppm [2] [%] | pest or weed control at 4 ppm [2] [%] | further results
1 | CCCN(Cc1ccc(Cl)nc1)C1=CC(=O)CCC1 [Compound I-34, 3-{[(6-chloropyrid-3-yl)methyl](propyl)amino}cyclohex-2-en-1-one] | – | – | – | – | – | – | – | – | – | – | – | – | – | – | – | – | Kill in % after 6 days +AMS + RME [1, 3]: 85%; Kill in % after 6 days +AMS [1, 4]: 50%; Kill in % after 6 days +RME [1, 5]: 85%; pest or weed control at 100 ppm ([1]; Myzus persicae, 144 h, 100 ppm a.i. alone, read-out: Kill in % after 6 days a.i.): 40%; Kill in % after 6 days +AMS + RME [2, 3]: 45%; Kill in % after 6 days +AMS [2, 4]: 20%; Kill in % after 6 days +RME [2, 5]: 40%; pest or weed control at 100 ppm [2]: 15%
2 | CN(Cc1ccc(Cl)nc1)C1=CC(=O)CCC1 [Compound I-38, 3-{[(6-chloropyrid-3-yl)methyl](methyl)amino}cyclohex-2-en-1-one] | 70 | 5 | 65 | 5 | – | – | – | – | – | – | – | – | – | – | – | – | Kill in % after 6 days +AMS + RME [2, 3]: 55%; Kill in % after 6 days +AMS [2, 4]: 90%; Kill in % after 6 days +RME [2, 5]: 70%; pest or weed control at 100 ppm [2]: 45%
3 | O=C1C=C(N(Cc2cnc(Br)c(F)c2)CC(F)F)CO1 [Compound I-16, 4-{[(6-bromo-5-fluoropyrid-3-yl)methyl](2,2-difluoroethyl)amino}-furan-2(5H)-one] | 100 | 99 | 98 | 95 | 10 | 0 | 10 | 5 | 5 | 10 | 10 | 90 | 95 | 98 | 0 | 80 | –
4 | CN(Cc1ccc(Br)nc1)C1=CC(=O)OC1 [Compound I-26, 4-{[(6-bromopyrid-3-yl)methyl](methyl)amino}furan-2(5H)-one] | – | – | – | – | 95 | 55 | 100 | 65 | 98 | 70 | 98 | – | – | – | 90 | – | –
5 | O=C1C=C(N(Cc2ccc(Br)nc2)CC(F)F)CO1 [Compound I-2] | – | – | – | – | 30 | 50 | 98 | 0 | 15 | 98 | 90 | – | – | – | 15 | – | –
6 | CON(Cc1ccc(Cl)nc1)C1=CC(=O)OC1 [Compound I-29, 4-{[(6-chloropyrid-3-yl)methyl](methoxy)amino}furan-2(5H)-one] | – | – | – | – | 50 | 0 | 30 | 0 | – | – | – | 75 | 65 | 50 | – | 50 | –
7 | O=C1C=C(N(Cc2ccc(F)nc2)C2CC2)CO1 [Compound I-22, 4-{cyclopropyl[(6-fluoropyrid-3-yl)methyl]amino}furan-2(5H)-one] | 80 | 0 | 70 | 5 | – | – | – | – | 45 | 20 | 30 | 65 | 70 | 55 | 25 | 60 | Kill in % after 6 days +AMS + RME ([1]; 20 ppm a.i. + AMS and RME 1000 ppm each): 90%; Kill in % after 6 days +AMS ([1]; 20 ppm a.i. + ammonium sulphate 1000 ppm): 80%; Kill in % after 6 days +RME ([1]; 20 ppm a.i. + rapeseed oil methyl ester 1000 ppm): 85%; pest or weed control at 20 ppm ([1]; Myzus persicae, 144 h, 20 ppm a.i. alone, read-out: Kill in % after 6 days a.i.): 65%
8 | CN(Cc1ccc(C(F)(F)F)nc1)C1=CC(=O)OC1 [Compound I-23, 4-(methyl {[6-(trifluoromethyl)pyrid-3-yl]methyl}amino)furan-2(5H)-one] | – | – | – | – | 80 | 10 | 75 | 35 | 25 | 15 | 50 | – | – | – | 10 | – | –
9 | CN(Cc1cnc(Cl)c(Cl)c1)C1=CC(=O)OC1 [Compound I-10, 4-{[(5,6-dichloropyrid-3-yl)methyl](methyl)amino}furan-2(5H)-one] | – | – | – | – | 99 | 0 | 90 | 0 | – | – | – | 99 | 99 | 85 | – | 65 | –
10 | O=C1C=C(N(Cc2ccc(F)nc2)CC(F)F)CO1 [Compound I-3, 4-{[(6-fluoropyrid-3-yl)methyl](2,2-difluoroethyl)amino}furan-2(5H)-one] | 100 | 80 | 85 | 0 | – | – | – | – | 90 | 15 | 35 | – | – | – | 0 | – | –
